From article PMC7893793 (ACS Omega, 2021) come the findings set out here.

Structures are written as SMILES.

Series [1] in a line: Pharmacokinetic study in rats after oral administration of PbR extract. The class given is in vivo, rat. The settings on record: for AUC(0-inf) / AUC(0-t) / Cmax / MRT inf / MRT last / Tmax / half-life: male, Wistar, plasma, po, 5 g/kg; for AUC(0-inf) / AUC(0-t) / Cmax / MRT inf / MRT last / Tmax / half-life / absorption characteristics: rat; for absorption characteristics: oral administration of PbR.

Series [2] in a line: Stability of analytes in rat plasma samples. Conditions: three freeze–thaw (−80 °C–room temperature) cycles, low, medium and high QC samples. The format is in vitro ADME.

For orientation: AUC(0-inf) means total exposure, with the tail of the curve extrapolated. Low readings indicate low exposure, high ones high exposure. As usually defined, the AUC(0-t) is exposure summed from dosing to a finite time, without extrapolation to infinity. Higher therefore signals high exposure. As usually defined, the Cmax is the highest concentration seen after dosing. A word on the MRT inf: it is the average time that molecules of a dose stay in the body. Usually MRT last stands for the average time that molecules of a dose stay in the body. In general, Tmax refers to the time from dosing to the highest level. Usually half-life stands for how long it takes for the measured level to halve. Higher therefore signals slow decline. In series [1], `COC(=O)C1=CO[C@@H](O[C@@H]2O[C@H](CO)[C@@H](O)[C@H](O)[C@H]2O)[C@H]2[C@@H]1[C@H](O)C[C@]2(C)OC(C)=O` [barlerin] registered a total exposure AUC(0-inf) of 63.2 ± 17.4 ng·h/mL, an AUC(0-t) of 55.1 ± 15.5 ng·h/mL, a peak concentration (Cmax) of 24.4 ± 8.4 ng/mL and a mean residence time (MRT inf) of 4.65 ± 1.43 h. In series [1], the MRT last was determined as 3.12 ± 0.64 h, the Tmax is 0.33 ± 0.13 h, the half-life is 3.33 ± 1.21 h and the absorption characteristics entry is “good absorption characteristics”. For the same compound, in series [2], the “freeze–thaw stability in plasma samples” value is on record as “No significant degradation”.

With `C[C@@H]1O[C@@H](O[C@@H]2[C@@H](O)[C@H](OCCc3ccc(O)c(O)c3)O[C@H](COC(=O)/C=C/c3ccc(O)c(O)c3)[C@H]2O)[C@H](O)[C@H](O)[C@H]1O` [isoacteoside], the “detection in rat plasma” value in series [1] (after oral administration of PbR at a dose of 0.5 g/100 g) is “neither of these were detected”.

In series [1], `COC(=O)C1=CO[C@@H](O[C@@H]2O[C@H](CO)[C@@H](O)[C@H](O)[C@H]2O)[C@H]2[C@@H]1[C@H](O)C[C@]2(C)O` [shanzhiside methyl ester] had an AUC(0-inf) of 159 ± 34.2 ng·h/mL, an area under the curve AUC(0-t) of 141 ± 33.4 ng·h/mL, a Cmax of 41.6 ± 13.8 ng/mL and a mean residence time MRT inf of 5.28 ± 0.73 h. Moreover, in series [1], the mean residence time MRT last turned out to be 3.84 ± 0.61 h, the time to peak (Tmax) amounted to 0.7 ± 0.14 h, the half-life is 3.59 ± 1.05 h and the absorption characteristics result is on record as “good absorption characteristics”. The “freeze–thaw stability in plasma samples” value in series [2] is listed as “No significant degradation”.
